Patent US10517926B2, “Oligopeptide having proinflammatory cytokine secretion-inhibiting activity” (Osaka University, priority 2015, dated 2019)

Legend:
[1] = test system: RAW264.7 cells; assay: Osteoclast-related mRNA expression (NFATc1, ACP5) by real-time RT-PCR; format: cell-based, mouse; details: MHP1 100 μg/ml, 3 days, FIG. 12A, 12B
Procedure: It has recently been reported that the administration of RANKL protein to mice induces the activation of osteoclasts. Accordingly, the influence of the RANKL peptide on osteoclasts was examined. The specific examination procedures were as follows. MHP1 (final concentration: 100 μg/ml) or RANKL protein (final concentration: 10 ng/ml) was added to a medium (DMEM medium (+4% FBS)) in which RAW264.7 cells were cultured, and the cells were collected after 10 minutes and 3 days.
For the samples collected after 10 minutes, nuclear proteins of the cells were extracted using the Nuclear Extract Kit (Active Motif), and the degree of NFκB (p65) activation was measured by the TransAM NFkB p65 Kit (Active Motif). On the other hand, for the samples collected after 3 days, the mRNA expression levels of NFATc1 and ACP5 were analyzed by real-time RT-PCR.

[2] = test system: neuron-glia mixed culture; assay: Neuronal cell death by LPS in neuron-glia mixed culture system (MAP2 staining); format: cell-based, mouse; details: B group; MHP1 50 μg/ml pretreatment, LPS 10 μg/ml, 5 days; FIG. 6
Procedure: Neuronal tissue (a mixture of neurons and glial cells) was removed from a mouse fetus 21 days after fertilization (21st fetal day), and cultured in Neurobasal medium (+B-27, +5% HS) for 9 days. Then, the cells were divided into 3 groups (A to C groups), and subjected to the following treatments.
The cells were cultured for 24 hours after the medium was changed to a medium (Neurobasal A/N2 supplement) containing MHP1 (final concentration: 50 μg/ml). Then, LPS (final concentration: 10 μg/ml) was added to the medium, and the cells were further cultured for 5 days. After culture, immunostaining was performed according to a general method using an antibody (M4403, produced by Sigma-Aldrich) against MAP2, which was a neuronal cell marker, as a primary antibody (primary antibody: 1/1000 dilution, and second antibody (A 11001, produced by Invitrogen): 1/1000 dilution). The staining images were observed, and the ratio of the area of the stained region (i.e., the region occupied by the survival neurons) to the culture dish area was calculated.

[3] = test system: MG6 cells; assay: Proinflammatory cytokine secretion inhibition, LPS-stimulated microglial cells (ELISA); format: cell-based, mouse; details: MG6 cells, peptide 50 or 100 μg/ml, LPS 2 ng/ml, 24 hours
Procedure: MG6 cells (mouse-derived microglial cell line) were cultured in a DMEM medium (+4% FBS) containing MHP1 or MHP2 (final concentration: 50 or 100 μg/ml), and LPS (final concentration: 2 ng/ml) for 24 hours by a standard method. After culture, the concentrations of IL-6 and TNFα in the medium were measured by the ELISA method. In the Examples of the present application, the ELISA method was performed using a kit (Quantikine ELISA Mouse TNF-α or Quantikine ELISA Mouse IL-6, produced by R&D Systems). The results are shown in FIG. 1 (IL-6) and FIG. 2 (TNFα).
The proinflammatory cytokine secretion-inhibiting effect was examined in the same as in Example 2, except that the final concentration of MHP1 was set to 100 μg/ml, and that RANKL full-length protein was used at a final concentration of 10 ng/ml or 100 ng/ml as the comparison target.

[4] = test system: cerebral ischemia mice (C57BL6/J); assay: Necrosis after cerebral ischemia, intraventricular administration; format: in vivo, mouse
Procedure: A cerebral ischemic area was artificially developed in wild-type mice (C57BL6/J) using embolic suture. Specifically, nylon suture was inserted from the right external carotid artery into the intracranial internal carotid artery, and the right middle cerebral artery was temporarily occluded. The embolic suture was removed 40 minutes after the formation of the ischemic area, and the blood was reperfused. Four hours after the formation of the ischemic area, 2 μl of MHP1 solution (0.625 μg/2 μl, the solvent was artificial cerebrospinal fluid (aCSF)) or 2 μl of aCSF was administered by injection into the ventricle of the mice with a neurological severe score of 1 or 2. Separately, a group to which edaravone, which is a known brain-protecting agent, was administered was also produced (aCSF intraventricular administration+3 mg/kg of edaravone i.p., administered every 12 hours). The brain was removed 72 hours after the formation of the ischemic area, and a brain slice including left and right brain portions in positions of 1.4, 0.7, and 0 mm in the front and rear of the bregma was produced. The slice was stained with cresyl violet. The area of the […] was regarded as the cerebral infarct area (necrosis site), and the ratio of cerebral infarct area was determined by the following formula. […] Ratio of cerebral infarct area=([normal side brain area]−([cerebral infarct side total area]−[cerebral infarct area])/normal side brain area)×100
Furthermore, the ratio of F4/80-positive cells (activated macrophage/microglia) in the cerebral infarction hemisphere in a position of 0.7 mm from the bregma (/middle cerebral artery region), and the number of the cells were measured.

[5] = test system: THP1 cells; assay: Proinflammatory cytokine secretion inhibition, human macrophage cells; format: cell-based; details: MHP6 10-100 μg/ml or MHP1 100 μg/ml, LPS 2 ng/ml, 24 hours, FIG. 14
Procedure: THP1 cells (human-derived macrophage cell line) were cultured in a DMEM medium (+4% FBS) containing MHP6 (human-derived; final concentration: 10, 30, 50, or 100 μg/ml) or MHP1 (mouse-derived; final concentration: 100 μg/ml), and LPS (final concentration: 2 ng/ml) for 24 hours by a standard method. After culture, the concentration of IL-6 in the medium was measured by the ELISA method.

“LMVYVVKTSIKIPSSHNLMKGGSTKNWSGN (listed as Mus musculus) [MHP1]” was tested, and the “expression of osteoclast-related mRNA (NFATc1, ACP5)” value [1] was “did not promote”, the “neuronal cell death by LPS” value [2] was “suppressed” and the “increase in the amount of IL-6 secretion by LPS” value ([3]; FIG. 1) was “suppressed”. For the same sequence, the “increase in the amount of TNFα secretion by LPS” value ([3]; FIG. 2) was “suppressed”, the “necrosis occurring after cerebral ischemia (ratio of cerebral infarct area)” value ([4]; 0.625 μg/2 μl into the ventricle 4 hours after ischemia, brain at 72 hours, FIG. 15) was “could be inhibited” and the “expression of activated macrophage/microglia (F4/80-positive cells)” value ([4]; cerebral infarction hemisphere, 0.7 mm from the bregma, FIG. 16) was “suppressed”. For the same sequence, the “degree of inhibition of necrosis compared with edaravone administration” value ([4]; one MHP1 administration vs edaravone 3 mg/kg i.p. every 12 hours, FIG. 15) was “higher than edaravone administration” and the “proinflammatory cytokine (IL-6) secretion-inhibiting activity on human-derived macrophage cells” value [5] was “exhibited proinflammatory cytokine secretion-inhibiting activity”.
